Laboratory results taken from patent US10085990B2, “Tricyclic compounds as modulators of TNF-α synthesis and as PDE4 inhibitors” (vTv Therapeutics LLC, priority 2008, dated 2018).
Counter-ions that a name gives are not always drawn.

These compounds were tested on TNF synthesis in human PBMC (assay: Human PBMC TNF Synthesis Assay). Conditions: LPS-stimulated human PBMC, overnight incubation, TNF ELISA; read-out: TNF inhib.
Format: cell-based
Method: Human PBMC TNF Synthesis Assay
Human PBMC were obtained by from a healthy human donor leuko pak. Typically, all donors were pre-screened for STD, HIV and have been given a physical by a physician. One to two ampoules were thawed at 37° C. and then resuspended in 45 to 85 mL of RPMI+10% FBS to a final concentration of 2.5×10^6 cells/mL. Resuspended cells were filtered to remove any large clumps.
Prepare compounds for addition to cells: All compounds were DMSO stocks at 20 mM. Working stock for cell testing were prepared as 4× concentrated material in RPMI+10% FBS. Compounds were added to a polypropylene block and then diluted with the appropriate amount of RPMI+10% FBS. Typically 2.6 μL of 20 mM stock was diluted to 650 μL final volume to yield an 80 μM starting concentration in the stocks. RPMI was added to DMSO stock by pipetting into the tube or block. The compounds were then serial diluted with RPMI+10% FBS. The final DMSO concentrations were not greater than 0.5% in the assay.
Compounds were added to the cells as 4× working stock. 50 μL of compound was prepared above is added to the cells and re-equilibrated in a humidified 5% CO2 incubator at 37° C. for 30 minutes.
A stock of LPS was prepared using RPMI+10% FBS. To prepare the stock, 2.8 μL of LPS (5 mg/mL; Sigma Cat #L3024) was added to 35 mL of media. 50 μL of the LPS in media was added to the cells. Control cultures without LPS received only RPMI+10% FBS. After an overnight incubation at 37° C., the cell culture supernatant was harvested and stored in a polypropylene 96 well plate.
Samples were tested for TNF as per the manufacturer's instructions (TNF ELISA; R&D Systems, Cat #DY210). The samples were serially diluted with PBS+1% BSA to the appropriate dilution condition for the cell prep, typically a 1:4 or 1:6 dilution.

`COc1cccc2c1ncc1c(=O)n(-c3cccc(Cl)c3)c(=O)n(C3CCN(S(=O)(=O)C(C)C)CC3)c12` [Example 93, 3-(3-Chloro-phenyl)-7-methoxy-1-[1-(propane-2-sulfonyl)-piperidin-4-yl]-1H-pyrimido[5,4-c]quinoline-2,4-dione] and `COc1cccc2c1ncc1c(=O)n(-c3cccc(Cl)c3)c(=O)n(C3CCN(S(=O)(=O)N(C)C)CC3)c12` [Example 94, 4-[3-(3-Chloro-phenyl)-7-methoxy-2,4-dioxo-3,4-dihydro-2H-pyrimido[5,4-c]quinolin-1-yl]-piperidine-1-sulfonic acid dimethylamide] are the same in IC50: 0.4 nM for the first, 0.4 nM for the second.

Compared with `CCn1c(=O)c2cnc3c(C(C)C)cccc3c2n(C2CCCC2)c1=O` [Example 33, 1-Cyclopentyl-3-ethyl-7-isopropyl-1H-pyrimido[5,4-c]quinoline-2,4-dione], `CCn1c(=O)c2cnc3c(C)cccc3c2n(C2CCCC2)c1=O` [Example 41, 1-Cyclopentyl-3-ethyl-7-methyl-1H-pyrimido[5,4-c]quinoline-2,4-dione] is 40-fold lower in IC50: 20000 nM for the first, 500 nM for the second. The second is the more potent here.

`CCn1c(=O)c2cnc3c(OC)cccc3c2n(-c2ccc(OC)c(OC)c2)c1=O` [Example 4, 1-(3,4-Dimethoxy-phenyl)-3-ethyl-7-methoxy-1H-pyrimido[5,4-c]quinoline-2,4-dione] and `CCn1c(=O)c2cnc3c(OC)cccc3c2n(C(C)C)c1=O` [Example 37, 3-Ethyl-1-isopropyl-7-methoxy-1H-pyrimido[5,4-c]quinoline-2,4-dione] are within 1.5-fold of each other in IC50: 14200 nM for the first, 20000 nM for the second.

Going from `COc1cccc2c1ncc1c(=O)n(-c3ccccc3Cl)c(=O)n(C3CCC(C)CC3)c12` (stereo not drawn) [Example 99, 3-(2-Chloro-phenyl)-7-methoxy-1-(4-methyl-cyclohexyl)-1H-pyrimido[5,4-c]quinoline-2,4-dione] to `COc1cccc2c1ncc1c(=O)n(-c3cccc(Cl)c3)c(=O)n(C3CCC(C)CC3)c12` (stereo not drawn) [Example 72, 3-(3-Chloro-phenyl)-7-methoxy-1-(4-methyl-cyclohexyl)-1H-pyrimido[5,4-c]quinoline-2,4-dione], the IC50 falls from 20 nM to 4 nM (5-fold). The second is the more potent here.

`COc1cccc2c1ncc1c(=O)n(-c3cccc(Cl)c3)c(=O)n(C3CCN(S(=O)(=O)c4ccccc4)CC3)c12` [Example 95, 1-(1-Benzenesulfonyl-piperidin-4-yl)-3-(3-chloro-phenyl)-7-methoxy-1H-pyrimido[5,4-c]quinoline-2,4-dione] and `COc1cccc2c1ncc1c(=O)n(-c3cccc(Cl)c3)c(=O)n(C3CCN(C(=O)c4ccccc4)CC3)c12` [Example 91, 1-(1-Benzoyl-piperidin-4-yl)-3-(3-chloro-phenyl)-7-methoxy-1H-pyrimido[5,4-c]quinoline-2,4-dione] are the same in IC50: 1 nM for the first, 1 nM for the second.

Compared with `COc1cccc2c1ncc1c(=O)n(-c3cccc(Cl)c3)c(=O)n(C3CCNCC3)c12` [Example 89, 3-(3-Chloro-phenyl)-7-methoxy-1-piperidin-4-yl-1H-pyrimido[5,4-c]quinoline-2,4-dione.dihydrochlode], `COc1cccc2c1ncc1c(=O)n(-c3cccc(Cl)c3)c(=O)n(C3CCCC3)c12` [Example 73, 3-(3-Chloro-phenyl)-1-cyclopentyl-7-methoxy-1H-pyrimido[5,4-c]quinoline-2,4-dione] is 1.8-fold higher in IC50: 5 nM for the first, 9 nM for the second.

First: CCNC(=O)N1CCC(n2c(=O)n(-c3cccc(Cl)c3)c(=O)c3cnc4c(OC)cccc4c32)CC1 [Example 97, 4-[3-(3-Chloro-phenyl)-7-methoxy-2,4-dioxo-3,4-dihydro-2H-pyrimido[5,4-c]quinolin-1-yl]-piperidine-1-carboxylic acid ethylamide]
Second: COc1cccc2c1ncc1c(=O)n(-c3cccc(Cl)c3)c(=O)n([C@H]3CC[C@H](C(=O)O)CC3)c12 [Example 103, Trans-4-[3-(3-Chloro-phenyl)-7-methoxy-2,4-dioxo-3,4-dihydro-2H-pyrimido[5,4-c]quinolin-1-yl]-cyclohexanecarboxylic acid.hydrochloride]
The IC50 of the first is 1.7-fold lower: 0.6 nM for the first, 1 nM for the second.

Going from `COc1cccc2c1ncc1c(=O)n(-c3cccc(Cl)c3)c(=O)n([C@H]3CC[C@H](NS(C)(=O)=O)CC3)c12` [Example 127, N-{4-[(S)-3-(3-Chloro-phenyl)-7-methoxy-2,4-dioxo-3,4-dihydro-2H-pyrimido[5,4-c]quinolin-1-yl]-trans-cyclohexyl}-methanesulfonamide] to `COc1cccc2c1ncc1c(=O)n(-c3cccc(Cl)c3)c(=O)n(C3CCCCC3)c12` [Example 106, 3-(3-Chloro-phenyl)-1-cyclohexyl-7-methoxy-1H-pyrimido[5,4-c]quinoline-2,4-dione], the IC50 falls from 6 nM to 4 nM (1.5-fold).

Going from `COc1cccc2c1ncc1c(=O)n(-c3cccc(C)c3)c(=O)n(C3CCC(C)CC3)c12` (stereo not drawn) [Example 78, 7-Methoxy-1-(4-methyl-cyclohexyl)-3-m-tolyl-1H-pyrimido[5,4-c]quinoline-2,4-dione] to `COc1cccc2c1ncc1c(=O)n(-c3cccc(C)c3)c(=O)n(C3CCCC3)c12` [Example 54, 1-Cyclopentyl-7-methoxy-3-m-tolyl-1H-pyrimido[5,4-c]quinoline-2,4-dione], the IC50 rises from 1 nM to 6 nM (6-fold). The first is the more potent here.

First: CCCn1c(=O)n(CC)c(=O)c2cnc3c(OC)cccc3c21 [Example 16, 3-Ethyl-7-methoxy-1-propyl-1H-pyrimido[5,4-c]quinoline-2,4-dione]
Second: CCCCn1c(=O)n(CC)c(=O)c2cnc3c(OC)cccc3c21 [Example 17, 1-Butyl-3-ethyl-7-methoxy-1H-pyrimido[5,4-c]quinoline-2,4-dione]
The IC50 of the first is 1.7-fold higher: 680 nM for the first, 390 nM for the second.

First: COc1cccc2c1ncc1c(=O)n(-c3cccs3)c(=O)n(C3CCCC3)c12 [Example 10, 1-Cyclopentyl-7-methoxy-3-thiophen-2-yl-1H-pyrimido[5,4-c]quinoline-2,4-dione]
Second: CCc1cccc(-n2c(=O)c3cnc4c(OC)cccc4c3n(C3CCCC3)c2=O)c1 [Example 75, 1-Cyclopentyl-3-(3-ethyl-phenyl)-7-methoxy-1H-pyrimido[5,4-c]quinoline-2,4-dione]
The IC50 of the first is 68-fold higher: 410 nM for the first, 6 nM for the second.

Going from `COc1cccc2c1ncc1c(=O)n(-c3cccc(SC)c3)c(=O)n(C3CCCC3)c12` [Example 111, 1-Cyclopentyl-7-methoxy-3-(3-methylsulfanyl-phenyl)-1H-pyrimido[5,4-c]quinoline-2,4-dione] to `COc1cccc2c1ncc1c(=O)n(-c3cccc(S(C)(=O)=O)c3)c(=O)n(C3CCCC3)c12` [Example 112, 1-Cyclopentyl-3-(3-methanesulfonyl-phenyl)-7-methoxy-1H-pyrimido[5,4-c]quinoline-2,4-dione], the IC50 rises from 74 nM to 280 nM (3.8-fold). The first is the more potent here.

`CCn1c(=O)c2cnc3c(OC)cc(Cl)cc3c2n(C2CCCC2)c1=O` [Example 28, 9-Chloro-1-cyclopentyl-3-ethyl-7-methoxy-1H-pyrimido[5,4-c]quinoline-2,4-dione] and `CCn1c(=O)c2cnc3c(OC(F)(F)F)cccc3c2n(C2CCCC2)c1=O` [Example 34, 1-Cyclopentyl-3-ethyl-7-trifluoromethoxy-1H-pyrimido[5,4-c]quinoline-2,4-dione] are within 1.5-fold of each other in IC50: 3500 nM for the first, 3600 nM for the second.

Going from `COc1cccc2c1ncc1c(=O)n(-c3ccc4c(c3)OCO4)c(=O)n(C3CCNCC3)c12` [Example 108, 3-Benzo[1,3]dioxol-5-yl-7-methoxy-1-piperidin-4-yl-1H-pyrimido[5,4-c]quinoline-2,4-dione.dihydrochloride] to `COc1cccc2c1ncc1c(=O)n(-c3ccc4c(c3)OCO4)c(=O)n(C3CCN(C(=O)OC(C)(C)C)CC3)c12` [Example 107, 4-(3-Benzo[1,3]dioxol-5-yl-7-methoxy-2,4-dioxo-3,4-dihydro-2H-pyrimido[5,4-c]quinolin-1-yl)-piperidine-1-carboxylic acid tert-butyl ester], the IC50 falls from 450 nM to 1 nM (450-fold). The second is the more potent here.

Compared with `COc1cccc2c1ncc1c(=O)n(C)c(=O)n(C3CCCC3)c12` [Example 48, 1-Cyclopentyl-7-methoxy-3-methyl-1H-pyrimido[5,4-c]quinoline-2,4-dione], `COc1cccc2c1ncc1c(=O)n(C(C)C)c(=O)n(C3CCCC3)c12` [Example 5, 1-Cyclopentyl-3-isopropyl-7-methoxy-1H-pyrimido[5,4-c]quinoline-2,4-dione] is 5.2-fold lower in IC50: 1400 nM for the first, 270 nM for the second.

Going from `COc1cccc2c1ncc1c(=O)n(-c3cccc(Cl)c3)c(=O)n(CC3CCN(S(C)(=O)=O)CC3)c12` [Example 126, 3-(3-Chloro-phenyl)-1-(1-methanesulfonyl-piperidin-4-ylmethyl)-7-methoxy-1H-pyrimido[5,4-c]quinoline-2,4-dione] to `CCOC(=O)Cn1c(=O)c2cnc3c(OC)cccc3c2n(C2CCCC2)c1=O` [Example 46, (1-Cyclopentyl-7-methoxy-2,4-dioxo-1,4-dihydro-2H-pyrimido[5,4-c]quinolin-3-yl)-acetic acid ethyl ester], the IC50 rises from 2 nM to 1000 nM (500-fold). The first is the more potent here.

For `CCn1c(=O)c2cnc3c(OC)cccc3c2n(C2CCC(C)CC2)c1=O` (stereo not drawn) [Example 45, 3-Ethyl-7-methoxy-1-(4-methyl-cyclohexyl)-1H-pyrimido[5,4-c]quinoline-2,4-dione], the IC50 was 200 nM.
